# According to ChEMBL document CHEMBL3885881, “DrugMatrix”:
# Species on record: Rattus norvegicus
# Assay: DrugMatrix - Regimen: Daily Repeat
# Assay type: toxicity, organism-based, Sprague-Dawley
# Set-up: regimen Daily Repeat, gender Male, age 6-8 weeks
# Conditions: in vivo, po, route oral GAVAGE, […]; for ABSOLUTE BASOPHIL / ABSOLUTE EOSINOPHIL / ABSOLUTE LYMPHOCYTE / ABSOLUTE MONOCYTE / BASOPHIL / EOSINOPHIL / ERYTHROCYTE COUNT / HEMATOCRIT / HEMOGLOBIN / LEUKOCYTE COUNT / LYMPHOCYTE / MEAN CORPUSCULAR HEMOGLOBIN / MEAN CORPUSCULAR HEMOGLOBIN CONCENTRATION / MEAN CORPUSCULAR VOLUME / MONOCYTE / NEUTROPHIL / PLATELET COUNT: tissue Blood
# [1] = 0 mg/kg, 72 h, dose level Control, time 3 day
# [2] = 0 mg/kg, 72 h, tissue Plasma, dose level Control, time 3 day
# [3] = 0 mg/kg, 120 h, dose level Control, time 5 day
# [4] = 0 mg/kg, 120 h, tissue Plasma, dose level Control, time 5 day
# [5] = 0 mg/kg, dose level Control, time 14 day
# [6] = 0 mg/kg, tissue Plasma, dose level Control, time 14 day
# [7] = 40 mg/kg, 72 h, dose level Low, time 3 day
# [8] = 40 mg/kg, 72 h, tissue Plasma, dose level Low, time 3 day
smiles,measurement,setting,value
C=CCN [ALLYLAMINE],ABSOLUTE BASOPHIL,[1],50 cells/µL
same,ABSOLUTE EOSINOPHIL,[1],43.3 cells/µL
same,ABSOLUTE LYMPHOCYTE,[1],9670 cells/µL
same,ABSOLUTE MONOCYTE,[1],210 cells/µL
same,BASOPHIL,[1],0.4%
same,EOSINOPHIL,[1],0.37%
same,ERYTHROCYTE COUNT,[1],6.82 x10E6/uL
same,HEMATOCRIT,[1],46.77%
same,HEMOGLOBIN,[1],14.53 G/DL
same,LEUKOCYTE COUNT,[1],11.77 x10E3/uL
same,LYMPHOCYTE,[1],82.1%
same,MEAN CORPUSCULAR HEMOGLOBIN,[1],21.33 pg
same,MEAN CORPUSCULAR HEMOGLOBIN CONCENTRATION,[1],31.13 G/DL
same,MEAN CORPUSCULAR VOLUME,[1],68.57 fL
same,MONOCYTE,[1],1.8%
same,NEUTROPHIL,[1],14.83%
same,PLATELET COUNT,[1],1303.33 x10E3/uL
same,ALANINE AMINOTRANSFERASE,[2],46.67 u/L
same,ALBUMIN,[2],4.17 G/DL
same,ALKALINE PHOSPHATASE,[2],530 u/L
same,ASPARTATE AMINOTRANSFERASE,[2],81.33 u/L
same,BLOOD UREA NITROGEN,[2],17.67 mg/dL
same,CARBON DIOXIDE,[2],41.67 mmol/L
same,CHLORIDE,[2],102 MEQ/L
same,CHOLESTEROL,[2],70.33 mg/dL
same,CREATINE PHOSPHOKINASE,[2],372.67 u/L
same,CREATININE,[2],0.5 mg/dL
same,GLUCOSE,[2],184 mg/dL
same,LIPASE,[2],13.33 u/L
same,PHOSPHORUS,[2],10.2 mg/dL
same,POTASSIUM,[2],6.13 MEQ/L
same,SODIUM,[2],145 MEQ/L
same,TOTAL BILIRUBIN,[2],0.43 mg/dL
same,TOTAL PROTEIN,[2],6.7 G/DL
same,URIC ACID,[2],0.83 mg/dL
same,ABSOLUTE BASOPHIL,[3],33.3 cells/µL
same,ABSOLUTE EOSINOPHIL,[3],56.7 cells/µL
same,ABSOLUTE LYMPHOCYTE,[3],9220 cells/µL
same,ABSOLUTE MONOCYTE,[3],230 cells/µL
same,BASOPHIL,[3],0.3%
same,EOSINOPHIL,[3],0.5%
same,ERYTHROCYTE COUNT,[3],6.62 x10E6/uL
same,HEMATOCRIT,[3],46.43%
same,HEMOGLOBIN,[3],14.3 G/DL
same,LEUKOCYTE COUNT,[3],10.96 x10E3/uL
same,LYMPHOCYTE,[3],83.83%
same,MEAN CORPUSCULAR HEMOGLOBIN,[3],21.57 pg
same,MEAN CORPUSCULAR HEMOGLOBIN CONCENTRATION,[3],30.77 G/DL
same,MEAN CORPUSCULAR VOLUME,[3],70.13 fL
same,MONOCYTE,[3],2.1%
same,NEUTROPHIL,[3],12.53%
same,PLATELET COUNT,[3],1056.67 x10E3/uL
same,ALANINE AMINOTRANSFERASE,[4],41.33 u/L
same,ALBUMIN,[4],4.07 G/DL
same,ALKALINE PHOSPHATASE,[4],603.33 u/L
same,ASPARTATE AMINOTRANSFERASE,[4],80 u/L
same,BLOOD UREA NITROGEN,[4],14.67 mg/dL
same,CARBON DIOXIDE,[4],43 mmol/L
same,CHLORIDE,[4],104 MEQ/L
same,CHOLESTEROL,[4],88.33 mg/dL
same,CREATINE PHOSPHOKINASE,[4],391.67 u/L
same,CREATININE,[4],0.47 mg/dL
same,GLUCOSE,[4],156 mg/dL
same,LIPASE,[4],10.67 u/L
same,PHOSPHORUS,[4],9.03 mg/dL
same,POTASSIUM,[4],6.1 MEQ/L
same,SODIUM,[4],145.67 MEQ/L
same,TOTAL BILIRUBIN,[4],0.37 mg/dL
same,TOTAL PROTEIN,[4],6.53 G/DL
same,URIC ACID,[4],0.5 mg/dL
same,ABSOLUTE BASOPHIL,[5],73.3 cells/µL
same,ABSOLUTE EOSINOPHIL,[5],60 cells/µL
same,ABSOLUTE LYMPHOCYTE,[5],12200 cells/µL
same,ABSOLUTE MONOCYTE,[5],250 cells/µL
same,BASOPHIL,[5],0.5%
same,EOSINOPHIL,[5],0.37%
same,ERYTHROCYTE COUNT,[5],7.33 x10E6/uL
same,HEMATOCRIT,[5],44.3%
same,HEMOGLOBIN,[5],14.77 G/DL
same,LEUKOCYTE COUNT,[5],14.86 x10E3/uL
same,LYMPHOCYTE,[5],81.87%
same,MEAN CORPUSCULAR HEMOGLOBIN,[5],20.2 pg
same,MEAN CORPUSCULAR HEMOGLOBIN CONCENTRATION,[5],33.33 G/DL
same,MEAN CORPUSCULAR VOLUME,[5],60.57 fL
same,MONOCYTE,[5],1.63%
same,NEUTROPHIL,[5],14.93%
same,PLATELET COUNT,[5],1101.67 x10E3/uL
same,ALANINE AMINOTRANSFERASE,[6],31.67 u/L
same,ALBUMIN,[6],3.83 G/DL
same,ALKALINE PHOSPHATASE,[6],430.67 u/L
same,ASPARTATE AMINOTRANSFERASE,[6],87 u/L
same,BLOOD UREA NITROGEN,[6],14.33 mg/dL
same,CARBON DIOXIDE,[6],39 mmol/L
same,CHLORIDE,[6],104 MEQ/L
same,CHOLESTEROL,[6],66 mg/dL
same,CREATINE PHOSPHOKINASE,[6],441.67 u/L
same,CREATININE,[6],0.7 mg/dL
same,GLUCOSE,[6],125.67 mg/dL
same,LACTATE DEHYDROGENASE,[6],397.67 u/L
same,LIPASE,[6],12.33 u/L
same,PHOSPHORUS,[6],9.87 mg/dL
same,POTASSIUM,[6],5.93 MEQ/L
same,SODIUM,[6],145 MEQ/L
same,TOTAL BILIRUBIN,[6],0.37 mg/dL
same,TOTAL PROTEIN,[6],6.27 G/DL
same,URIC ACID,[6],0.67 mg/dL
same,ABSOLUTE BASOPHIL,[7],40 cells/µL
same,ABSOLUTE EOSINOPHIL,[7],60 cells/µL
same,ABSOLUTE LYMPHOCYTE,[7],9180 cells/µL
same,ABSOLUTE MONOCYTE,[7],300 cells/µL
same,BASOPHIL,[7],0.33%
same,EOSINOPHIL,[7],0.53%
same,ERYTHROCYTE COUNT,[7],7.09 x10E6/uL
same,HEMATOCRIT,[7],45.93%
same,HEMOGLOBIN,[7],14.27 G/DL
same,LEUKOCYTE COUNT,[7],11.66 x10E3/uL
same,LYMPHOCYTE,[7],78.7%
same,MEAN CORPUSCULAR HEMOGLOBIN,[7],20.07 pg
same,MEAN CORPUSCULAR HEMOGLOBIN CONCENTRATION,[7],31 G/DL
same,MEAN CORPUSCULAR VOLUME,[7],64.77 fL
same,MONOCYTE,[7],2.47%
same,NEUTROPHIL,[7],17.23%
same,PLATELET COUNT,[7],1151.67 x10E3/uL
same,ALANINE AMINOTRANSFERASE,[8],38 u/L
same,ALBUMIN,[8],3.8 G/DL
same,ALKALINE PHOSPHATASE,[8],546.67 u/L
same,ASPARTATE AMINOTRANSFERASE,[8],81.67 u/L
same,BLOOD UREA NITROGEN,[8],16.67 mg/dL
same,CARBON DIOXIDE,[8],38.67 mmol/L
same,CHLORIDE,[8],105.67 MEQ/L
same,CHOLESTEROL,[8],70.67 mg/dL
same,CREATINE PHOSPHOKINASE,[8],634.67 u/L
same,CREATININE,[8],0.6 mg/dL
same,GLUCOSE,[8],204.33 mg/dL
same,LIPASE,[8],283.33 u/L
same,PHOSPHORUS,[8],9.93 mg/dL
same,POTASSIUM,[8],6.43 MEQ/L
same,SODIUM,[8],146 MEQ/L
